Test systems include UACC-257 melanoma; TK-10 renal; MALME-3M melanoma; OVCAR-5 ovarian; SK-OV-3 ovarian; HOP-62 NSCLC; CAKI-1 renal; KM20L2 colon; KM12 colon; OVCAR-4 ovarian; RXF 393 renal; CCRF-CEM leukemia; M14 melanoma; NCI/ADR-RES ovarian; MDA-MB-435; DU-145 prostate.
Assay in all cases: growth of human tumour cells (NCI), 48 h

Molecules are shown by their SMILES. Several values for one entry are separate records, joined by “and”; a condition that tells them apart may be missing. Equal entries are not always repeated.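 In this assay, cells in 96-well plates receive the compound at five concentrations for 48 hours. Endpoints are linearly interpolated between the surrounding concentrations. GI50 = concentration required for 50% inhibition of growth. At the TGI there is no net growth.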

Take `COc1cc(C2c3cc4c(cc3[C@@H](NCCCN(C)C)[C@H]3COC(=O)C23)OCO4)cc(OC)c1O` (stereo partly specified): the GI50 with UACC-257 melanoma is 1030 nM and 2100 nM; with TK-10 renal, 992 nM and 2860 nM; in the test with HOP-62 NSCLC, 93.3 nM and 271 nM; with CAKI-1 renal, 59.9 nM and 227 nM. In addition, the TGI in the test on UACC-257 melanoma is 7.25 µM and 10.3 µM; in the test with TK-10 renal, 5.17 µM and 7.61 µM; in the test with MALME-3M melanoma, 1.07 µM and 1.44 µM; in the test with OVCAR-5 ovarian it was 2.59 µM and 5.52 µM; with SK-OV-3 ovarian it was 1.26 µM and 1.2 µM; with HOP-62 NSCLC, 0.297 µM and 0.925 µM. For the same molecule, the TGI is 0.351 µM and 0.952 µM with CAKI-1 renal; 2.44 µM and 4.44 µM with KM20L2 colon; 2.26 µM and 3.61 µM in the test on KM12 colon.
On to `Nc1nc(Cl)cc(NCCCCCCCCCCCCNc2cc(Cl)nc(N)n2)n1`, for which the TGI is 75.2 µM in the test on OVCAR-4 ovarian; 44.5 µM in the test with RXF 393 renal; greater than 100 µM in the test with UACC-257 melanoma; greater than 100 µM in the test on TK-10 renal; greater than 100 µM in the test on CCRF-CEM leukemia; greater than 100 µM in the test with MALME-3M melanoma. Moreover, the TGI in the test on M14 melanoma is greater than 100 µM; with SK-OV-3 ovarian, greater than 100 µM; with HOP-62 NSCLC, 35.2 µM; with KM20L2 colon, greater than 100 µM; in the test with KM12 colon, greater than 100 µM.
On to `ClCc1ccc2ccc3ccc(CCl)nc3c2n1`, for which the TGI worked out at 14.5 µM in the test on OVCAR-4 ovarian; 3.17 µM with RXF 393 renal; 3.38 µM in the test on UACC-257 melanoma; 8.64 µM in the test on CCRF-CEM leukemia; 3.69 µM in the test with MALME-3M melanoma; 3.66 µM with NCI/ADR-RES ovarian. Moreover, the TGI in the test on OVCAR-5 ovarian was 7.82 µM; with HOP-62 NSCLC it was 15.4 µM; in the test on KM20L2 colon it was 12 µM; with KM12 colon, 2.32 µM.
In the case of `CC[C@](C)(O)C(=O)O[C@H]1C(=O)O[C@@H]2C[C@H]3C(C)=C[C@H](O)[C@@H](O)[C@]3(C)[C@H]3[C@@]4(O)OC[C@]32[C@@H]1[C@@H](C)[C@H]4O`, the TGI is 185 µM with OVCAR-4 ovarian; 2.43 µM in the test with RXF 393 renal; 149 µM in the test on UACC-257 melanoma; 23.9 µM with CCRF-CEM leukemia; 34.1 µM in the test on MALME-3M melanoma; greater than 205 µM with NCI/ADR-RES ovarian. The TGI in the test on OVCAR-5 ovarian amounted to 291 µM; with SK-OV-3 ovarian, 263 µM; in the test with HOP-62 NSCLC, 157 µM; in the test with CAKI-1 renal, 116 µM; in the test with KM20L2 colon it was 189 µM; with KM12 colon it was 109 µM.
Take `CCCCCCCSCC1C(=O)C23C(O)C1CCC2C12COC3(O)C(O)C1C(C)(C)CCC2O` (stereo unspecified): the TGI was determined as 25.3 µM with OVCAR-4 ovarian; 27.1 µM in the test with RXF 393 renal; 19.4 µM with UACC-257 melanoma; 29.5 µM in the test on TK-10 renal; 14 µM with CCRF-CEM leukemia; 27.4 µM in the test on MALME-3M melanoma. The TGI is 31.4 µM with OVCAR-5 ovarian; 24.7 µM in the test on M14 melanoma; 32 µM in the test with SK-OV-3 ovarian; 37.9 µM with HOP-62 NSCLC; 15.7 µM in the test on CAKI-1 renal; 25 µM in the test with KM20L2 colon. This molecule came in with a TGI in the test on KM12 colon of 23.9 µM.
With `CC(=O)c1cccc(NC(=O)C(=O)C(C(=O)c2ccccc2F)C2OC(=O)c3ccccc32)c1` (stereo unspecified), the TGI is greater than 100 µM in the test with OVCAR-4 ovarian; 70 µM with RXF 393 renal; greater than 100 µM in the test with UACC-257 melanoma; greater than 100 µM in the test with TK-10 renal; 49.6 µM in the test on CCRF-CEM leukemia; greater than 100 µM in the test on OVCAR-5 ovarian. For the same molecule, the TGI in the test with M14 melanoma, in the test on SK-OV-3 ovarian, in the test with HOP-62 NSCLC, in the test with CAKI-1 renal, in the test with KM20L2 colon and with KM12 colon was greater than 100 µM throughout.
Consider `COC(=O)C1(C)CCCC2(C)C3CCC4CC3(C=C4CO)CCC12` (stereo unspecified), for which the TGI in the test with OVCAR-4 ovarian, with MDA-MB-435, in the test with RXF 393 renal, in the test on DU-145 prostate, in the test on UACC-257 melanoma and in the test on TK-10 renal was greater than 100 µM in each case. For the same molecule, the TGI in the test with CCRF-CEM leukemia was greater than 100 µM; in the test with MALME-3M melanoma, greater than 100 µM; in the test with NCI/ADR-RES ovarian, 75.5 µM; in the test on OVCAR-5 ovarian, greater than 100 µM; with M14 melanoma, greater than 100 µM; in the test with SK-OV-3 ovarian it was greater than 100 µM. The TGI in the test on HOP-62 NSCLC and with CAKI-1 renal was greater than 100 µM throughout.
Regarding `CC(C)CCCC(C)[C@H]1CC[C@H]2[C@@H]3CC[C@H]4C[C@@H](CCC=C(c5cc(Cl)c(O)c(C(=O)O)c5)c5cc(Cl)c(O)c(C(=O)O)c5)CC[C@]4(C)[C@H]3CC[C@]12C` (stereo partly specified) (tested in a mixture with another compound), the TGI in the test on OVCAR-4 ovarian, in the test with MDA-MB-435, with RXF 393 renal, in the test on DU-145 prostate, in the test with TK-10 renal and in the test on CCRF-CEM leukemia was greater than 50 µM each time. Moreover, the TGI in the test with MALME-3M melanoma, with NCI/ADR-RES ovarian, with OVCAR-5 ovarian, in the test on M14 melanoma, in the test on SK-OV-3 ovarian and in the test with HOP-62 NSCLC was greater than 50 µM in each case. Further, the TGI in the test on CAKI-1 renal and in the test with KM12 colon was greater than 50 µM each time.
Consider `COC(=O)CCC(C)C1CCC2C3CCC4CC5CCC4(C)C3(O5)C(Br)C(Br)C12C` (stereo unspecified), for which the TGI with OVCAR-4 ovarian, in the test with MDA-MB-435, in the test with RXF 393 renal, in the test on DU-145 prostate, in the test on UACC-257 melanoma and in the test on TK-10 renal was greater than 100 µM in each case. For the same molecule, the TGI with MALME-3M melanoma, in the test with NCI/ADR-RES ovarian, in the test with OVCAR-5 ovarian, in the test on M14 melanoma, in the test with SK-OV-3 ovarian and in the test on HOP-62 NSCLC was greater than 100 µM in each case. In addition, the TGI with CAKI-1 renal and with KM12 colon was greater than 100 µM throughout.
With `CC1CC(C)(O)CC(C(O)CC2CC(=O)NC(=O)C2)C1=O` (stereo unspecified), the TGI is 0.87 µM with OVCAR-4 ovarian; 2.1 µM in the test on MDA-MB-435; 1.05 µM with RXF 393 renal; 1.85 µM in the test with DU-145 prostate; greater than 100 µM in the test on UACC-257 melanoma; 3.99 µM in the test on TK-10 renal. In addition, the TGI with CCRF-CEM leukemia amounted to 1.53 µM; in the test with MALME-3M melanoma, 6.44 µM; in the test on NCI/ADR-RES ovarian, 5.87 µM; in the test with OVCAR-5 ovarian, 9.21 µM; in the test on M14 melanoma it was 0.551 µM; in the test with SK-OV-3 ovarian, 2.45 µM. The TGI is 0.449 µM in the test with HOP-62 NSCLC, 0.0916 µM with CAKI-1 renal and 1.41 µM in the test with KM12 colon.
Take `CCOC(=O)C1=NN(c2ccccc2)C2=CC(C)=NN(C)C(=S)N21`: the TGI in the test on OVCAR-4 ovarian, in the test with MDA-MB-435, with RXF 393 renal, with DU-145 prostate, in the test with UACC-257 melanoma and in the test on TK-10 renal was greater than 100 µM in each case. Besides, the TGI in the test on CCRF-CEM leukemia, with NCI/ADR-RES ovarian, in the test with OVCAR-5 ovarian, in the test on M14 melanoma, in the test on SK-OV-3 ovarian and with CAKI-1 renal was greater than 100 µM throughout. This molecule showed a TGI in the test with KM12 colon greater than 100 µM.
With `CN(C)CCCNc1ccc2nnn3c4ccc(OC(=O)c5ccc([N+](=O)[O-])cc5)cc4c(=O)c1c23`, the TGI in the test on OVCAR-4 ovarian came out at 10.9 µM; with MDA-MB-435, 20.2 µM; in the test on RXF 393 renal it was 9.08 µM; in the test on DU-145 prostate it was 18.3 µM; in the test with UACC-257 melanoma it was 31 µM; in the test with TK-10 renal, 24.9 µM. Besides, the TGI with CCRF-CEM leukemia was 5.39 µM; with MALME-3M melanoma, 27.2 µM; with NCI/ADR-RES ovarian, 37.5 µM; with OVCAR-5 ovarian, 28 µM; in the test on M14 melanoma, 27 µM; with SK-OV-3 ovarian it was 26.7 µM. Also, the TGI in the test with HOP-62 NSCLC was greater than 33.1 µM; in the test with CAKI-1 renal it was 7.59 µM; with KM12 colon it was 21.3 µM.

For the origin of these results see PubChem BioAssay (NCI).
